SMILES strings stand for the structures. “And” between values parts separate entries of the source, which are not always exact repeats. Equal entries are not always repeated. Inconclusive results and toxic doses are left out.

20 molecules from PubChem BioAssay AID330 (DTP/NCI, 2004) can be followed below.

The assay deals with P388 leukemia ip, CD2F1 mice, survival T/C. The assay can be described thus: NCI In Vivo Anticancer Drug Screen. Data for tumor model P388 Leukemia (intraperitoneal) in CD2F1 (CDF1) mice. The following applies: endpoint: median survival time, higher = longer survival. In outline:
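Mice carrying the transplanted tumor received test compound or vehicle. Survival was recorded in each group, and the value is the treated-group measurement divided by that of the vehicle-treated control group.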

Setting [1] is: dose: 50.0 mg/kg/injection, schedule: Q01DX009 (ip), vehicle: Klucel (hydroxypropylcellulose) (HPC).
Where [2] appears, read: dose: 100.0 mg/kg/injection, schedule: Q01DX009 (ip), vehicle: Klucel (hydroxypropylcellulose) (HPC).
[3] abbreviates: dose: 50.0 mg/kg/injection, schedule: Q04DX003 (ip), vehicle: saline with Tween-80.
[4] abbreviates: dose: 12.5 mg/kg/injection, schedule: Q01DX009 (ip), vehicle: saline.
Where [5] appears, read: dose: 25.0 mg/kg/injection, schedule: Q01DX009 (ip), vehicle: saline.
Setting [6] is: dose: 50.0 mg/kg/injection, schedule: Q01DX009 (ip), vehicle: saline.
[7] abbreviates: dose: 100.0 mg/kg/injection, schedule: Q01DX009 (ip), vehicle: saline.
Where [8] appears, read: dose: 50.0 mg/kg/injection, schedule: Q01DX005 (ip), vehicle: saline with Tween-80.
[9] abbreviates: dose: 100.0 mg/kg/injection, schedule: Q01DX005 (ip), vehicle: saline with Tween-80.
Setting [10] is: dose: 200.0 mg/kg/injection, schedule: Q01DX005 (ip), vehicle: saline with Tween-80.
The mark [11] stands for this setting: dose: 50.0 mg/kg/injection, schedule: Q01DX009 (ip), vehicle: saline with Tween-80.

For the molecule `O=c1c(SSc2coc3ccccc3c2=O)coc2ccccc12`, the T/C reads like this: (dose: 60.0 mg/kg/injection, schedule: Q01DX005 (ip), vehicle: saline with Tween-80) 116 % of control; (dose: 120.0 mg/kg/injection, schedule: Q01DX005 (ip), vehicle: saline with Tween-80) 102 % of control; (dose: 240.0 mg/kg/injection, schedule: Q01DX005 (ip), vehicle: saline with Tween-80) 106 % of control.
Take `Cc1c2c(cc3c1[nH]c1ccccc13)C(c1ccc(Cl)cc1)=NCC2`: the T/C is 99 % of control (dose: 12.5 mg/kg/injection, schedule: Q01DX009 (ip), vehicle: Klucel (hydroxypropylcellulose) (HPC)); 101 % of control (dose: 25.0 mg/kg/injection, schedule: Q01DX009 (ip), vehicle: Klucel (hydroxypropylcellulose) (HPC)); 96 % of control under setting [1]; 96 % of control under setting [2].
As for `CN(C)c1ccc(/C=C(/C#N)c2ccc(Cl)cc2)cc1`, the T/C was 97 % of control under setting [3]; 92 % of control (dose: 100.0 mg/kg/injection, schedule: Q04DX003 (ip), vehicle: saline with Tween-80); 92 % of control (dose: 200.0 mg/kg/injection, schedule: Q04DX003 (ip), vehicle: saline with Tween-80); 92 % of control (dose: 400.0 mg/kg/injection, schedule: Q04DX003 (ip), vehicle: saline with Tween-80).
Turning to `COc1ccc(Cc2cc(C(C)(C)C)cc(C(C)(C)C)c2O)cc1`, the T/C is, setting by setting: (dose: 50.0 mg/kg/injection, schedule: Q01DX005 (ip), vehicle: distilled water + alcohol) 96 % of control; (dose: 100.0 mg/kg/injection, schedule: Q01DX005 (ip), vehicle: distilled water + alcohol) 96 % of control; (dose: 200.0 mg/kg/injection, schedule: Q01DX005 (ip), vehicle: distilled water + alcohol) 95 % of control.
On to `COC1CC(C)(O)Cc2cc3c(c(O)c21)C(=O)c1c(O)cc2c(c1C3=O)OC1OC2(C)C(O)C(N(C)C)C1O` (centres undefined), for which the T/C was 158 % of control (dose: 6.25 mg/kg/injection, schedule: Q01DX009 (ip), vehicle: other); 176 % of control (dose: 12.5 mg/kg/injection, schedule: Q01DX009 (ip), vehicle: other); 168 % of control (dose: 25.0 mg/kg/injection, schedule: Q01DX009 (ip), vehicle: other).
Regarding `CCOS(=O)(=O)c1ccc([N+](=O)[O-])cc1`, the T/C under setting [4] is 95 % of control; the T/C under setting [5] was 100 % of control; the T/C under setting [6] is 98 % of control; the T/C under setting [7] was 100 % of control and 90 % of control.
For the molecule `c1ccc(-c2nc3ccccc3c3ccccc23)cc1`, the T/C under setting [8] is 101 % of control, the T/C under setting [9] is 113 % of control and the T/C under setting [10] is 102 % of control.
Consider `CC(=O)C1=CN(Cc2ccccc2)C=C(C(C)C)C1`, for which the T/C reads like this: (dose: 50.0 mg/kg/injection, schedule: Q04DX003 (ip), vehicle: saline) 98 % of control; (dose: 50.0 mg/kg/injection, schedule: Q04DX003 (ip), vehicle: suspension in saline) 104 % of control; (dose: 100.0 mg/kg/injection, schedule: Q04DX003 (ip), vehicle: saline) 101 % of control; (dose: 100.0 mg/kg/injection, schedule: Q04DX003 (ip), vehicle: suspension in saline) 103 % of control; (dose: 200.0 mg/kg/injection, schedule: Q04DX003 (ip), vehicle: saline) 104 % of control; (dose: 200.0 mg/kg/injection, schedule: Q04DX003 (ip), vehicle: suspension in saline) 105 % of control.
On to `COC(=O)C1CC23C4=C(CCC41)CCC1CN4CC(C)C(CC(OC(C)=O)C12COC(C)=O)C43O` (centres undefined), for which the T/C reads like this: (dose: 0.78 mg/kg/injection, schedule: Q01DX009 (ip), vehicle: suspension in saline) 108 % of control; (dose: 1.56 mg/kg/injection, schedule: Q01DX009 (ip), vehicle: suspension in saline) 104 % of control; (dose: 3.13 mg/kg/injection, schedule: Q01DX009 (ip), vehicle: suspension in saline) 100 % of control; (dose: 6.25 mg/kg/injection, schedule: Q01DX009 (ip), vehicle: suspension in saline) 104 % of control.
As to `CC(=O)ON1C(=O)C2C3C=CC(O3)C2C1=O` (centres undefined), the T/C was 103 % of control (dose: 3.13 mg/kg/injection, schedule: Q01DX009 (ip), vehicle: water); 112 % of control (dose: 6.25 mg/kg/injection, schedule: Q01DX009 (ip), vehicle: water); 100 % of control (dose: 12.5 mg/kg/injection, schedule: Q01DX009 (ip), vehicle: water); 102 % of control (dose: 25.0 mg/kg/injection, schedule: Q01DX009 (ip), vehicle: water); 93 % of control (dose: 50.0 mg/kg/injection, schedule: Q01DX009 (ip), vehicle: water).
Consider `COC(=O)Nc1nc2ccc(Br)cc2[nH]1`, for which the T/C is 115 % of control (dose: 200.0 mg/kg/injection, schedule: Q04DX003 (oral), vehicle: saline with Tween-80); 107 % of control (dose: 400.0 mg/kg/injection, schedule: Q04DX003 (oral), vehicle: saline with Tween-80); 104 % of control (dose: 800.0 mg/kg/injection, schedule: Q04DX003 (oral), vehicle: saline with Tween-80); 120 % of control (dose: 1600.0 mg/kg/injection, schedule: Q04DX003 (oral), vehicle: saline with Tween-80).
Consider `CCC(=[Se])N(CC)CC`, for which the T/C was 98 % of control (dose: 0.39 mg/kg/injection, schedule: Q01DX009 (ip), vehicle: Klucel (hydroxypropylcellulose) (HPC)); 102 % of control (dose: 0.78 mg/kg/injection, schedule: Q01DX009 (ip), vehicle: Klucel (hydroxypropylcellulose) (HPC)); 99 % of control (dose: 1.56 mg/kg/injection, schedule: Q01DX009 (ip), vehicle: Klucel (hydroxypropylcellulose) (HPC)); 100 % of control (dose: 6.25 mg/kg/injection, schedule: Q01DX009 (ip), vehicle: Klucel (hydroxypropylcellulose) (HPC)).
Consider `c1ccc(CN2CCOC2)cc1`, for which the T/C was 108 % of control under setting [4]; 108 % of control under setting [5]; 118 % of control and 124 % of control under setting [6]; 123 % of control under setting [7]; 116 % of control (dose: 200.0 mg/kg/injection, schedule: Q01DX009 (ip), vehicle: saline).
`C[C@]12CC[C@H](O)CC1=CC[C@@H]1[C@@H]2CC[C@]2(C)c3nc4ccccc4cc3C[C@@H]12`: the T/C reads like this: (dose: 12.5 mg/kg/injection, schedule: Q01DX009 (ip), vehicle: saline with Tween-80) 104 % of control; (dose: 12.5 mg/kg/injection, schedule: Q04DX003 (ip), vehicle: saline with Tween-80) 100 % of control; (dose: 25.0 mg/kg/injection, schedule: Q01DX009 (ip), vehicle: saline with Tween-80) 100 % of control; (dose: 25.0 mg/kg/injection, schedule: Q04DX003 (ip), vehicle: saline with Tween-80) 100 % of control; under setting [11], 95 % of control; under setting [3], 90 % of control.
As for `N#CC1C(=O)NC(=O)C(C#N)C1c1c2ccccc2cc2ccccc12` (centres undefined), the T/C under setting [1] is 100 % of control; the T/C under setting [2] is 100 % of control; the T/C (dose: 200.0 mg/kg/injection, schedule: Q01DX009 (ip), vehicle: Klucel (hydroxypropylcellulose) (HPC)) is 100 % of control.
With `CCOC(=O)C1C(C(=O)c2ccc(Br)cc2)C12C(=O)N(C)c1ccccc12` (centres undefined), the T/C was 99 % of control (dose: 12.5 mg/kg/injection, schedule: Q04DX002 (ip), vehicle: saline with Tween-80); 92 % of control (dose: 25.0 mg/kg/injection, schedule: Q04DX002 (ip), vehicle: saline with Tween-80); 93 % of control (dose: 50.0 mg/kg/injection, schedule: Q04DX002 (ip), vehicle: saline with Tween-80).
For `Oc1ccc2ccccc2c1C(c1ccc(Cl)cc1)c1c(O)ccc2ccccc12`, the T/C is 100 % of control under setting [8], 101 % of control under setting [9] and 107 % of control under setting [10].
Take `N#Cc1ccc(Cl)cc1`: the T/C is 101 % of control under setting [11]; 89 % of control (dose: 100.0 mg/kg/injection, schedule: Q01DX009 (ip), vehicle: saline with Tween-80); 93 % of control (dose: 200.0 mg/kg/injection, schedule: Q01DX009 (ip), vehicle: saline with Tween-80).
On to `CC(C)(C)C1CCC=CC(=O)C1` (centres undefined), for which the T/C was 105 % of control (dose: 100.0 mg/kg/injection, schedule: Q04DX003 (ip), vehicle: Klucel (hydroxypropylcellulose) (HPC)) and 113 % of control (dose: 200.0 mg/kg/injection, schedule: Q04DX003 (ip), vehicle: Klucel (hydroxypropylcellulose) (HPC)).
With `Cc1nn(C(=O)c2cccnc2)c(-c2ccccc2)c1N=Nc1ccc(C(=O)O)cc1`, the T/C reads like this: under setting [8], 93 % of control; under setting [9], 93 % of control.
